In PubChem BioAssay AID248 (DTP/NCI, 2004):
Where “and” joins values, the source holds several entries; their conditions need not be identical. Equal entries are not always repeated. Toxic doses and inconclusive results are not listed. Cut-off read from the data, not from the text of the source: active = T/C of 150% or more; inactive = T/C below 125%.

Tested on: L1210 leukemia ip in BDF1 mice, survival T/C
Experiment: NCI In Vivo Anticancer Drug Screen. Data for tumor model L1210 Leukemia (intraperitoneal) in B6D2F1 (BDF1) mice
Conditions: endpoint: mean survival time, higher = longer survival
Summary of the method: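 Transplantable tumor model; survival measured in treated vs vehicle control mice. Value = treated/control.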

[1] = dose: 100.0 mg/kg/injection, schedule: Q01DX001 (ip), vehicle: Klucel (hydroxypropylcellulose) (HPC)
[2] = dose: 100.0 mg/kg/injection, schedule: Q01DX009 (ip), vehicle: Klucel (hydroxypropylcellulose) (HPC)
[3] = dose: 100.0 mg/kg/injection, schedule: Q04DX003 (ip), vehicle: Klucel (hydroxypropylcellulose) (HPC)
[4] = dose: 200.0 mg/kg/injection, schedule: Q01DX001 (ip), vehicle: Klucel (hydroxypropylcellulose) (HPC)
[5] = dose: 200.0 mg/kg/injection, schedule: Q01DX009 (ip), vehicle: Klucel (hydroxypropylcellulose) (HPC)
[6] = dose: 200.0 mg/kg/injection, schedule: Q04DX003 (ip), vehicle: Klucel (hydroxypropylcellulose) (HPC)
[7] = dose: 400.0 mg/kg/injection, schedule: Q01DX001 (ip), vehicle: Klucel (hydroxypropylcellulose) (HPC)
[8] = dose: 400.0 mg/kg/injection, schedule: Q01DX009 (ip), vehicle: Klucel (hydroxypropylcellulose) (HPC)
[9] = dose: 400.0 mg/kg/injection, schedule: Q04DX003 (ip), vehicle: Klucel (hydroxypropylcellulose) (HPC)
[10] = dose: 100.0 mg/kg/injection, schedule: Q04DX002 (ip), vehicle: Klucel (hydroxypropylcellulose) (HPC)
[11] = dose: 100.0 mg/kg/injection, schedule: Q01DX001 (ip), vehicle: saline
[12] = dose: 200.0 mg/kg/injection, schedule: Q01DX001 (ip), vehicle: saline
[13] = dose: 400.0 mg/kg/injection, schedule: Q01DX001 (ip), vehicle: saline
[14] = dose: 50.0 mg/kg/injection, schedule: Q01DX001 (ip), vehicle: saline
[15] = dose: 100.0 mg/kg/injection, schedule: Q04DX003 (ip), vehicle: saline with Tween-80
[16] = dose: 200.0 mg/kg/injection, schedule: Q04DX003 (ip), vehicle: saline with Tween-80
[17] = dose: 12.5 mg/kg/injection, schedule: Q01DX009 (ip), vehicle: saline
[18] = dose: 25.0 mg/kg/injection, schedule: Q01DX009 (ip), vehicle: saline
[19] = dose: 50.0 mg/kg/injection, schedule: Q01DX009 (ip), vehicle: saline
[20] = dose: 100.0 mg/kg/injection, schedule: Q01DX009 (ip), vehicle: saline
[21] = dose: 200.0 mg/kg/injection, schedule: Q01DX009 (ip), vehicle: saline
[22] = dose: 50.0 mg/kg/injection, schedule: Q01DX009 (ip), vehicle: saline with Tween-80
[23] = dose: 100.0 mg/kg/injection, schedule: Q01DX009 (ip), vehicle: saline with Tween-80
[24] = dose: 200.0 mg/kg/injection, schedule: Q01DX009 (ip), vehicle: saline with Tween-80

Measured: T/C

O=C(Nc1ccc(F)cc1)Nc1nccs1
inactive: [1] 88 % of control | [2] 98 % of control and 102 % of control | [3] 102 % of control | [4] 96 % of control | [5] 101 % of control and 117 % of control | [6] 111 % of control | [7] 93 % of control | [8] 98 % of control | [9] 113 % of control

N=C1N=C(N)C(CCCOc2cc(Cl)ccc2Cl)(CCCOc2cc(Cl)ccc2Cl)C(N)=N1
inactive: [3] 94 % of control | [6] 106 % of control | [9] 87 % of control

O=C(O)CSc1cc(Cl)ccc1Cl
inactive: dose: 12.5 mg/kg/injection, schedule: Q01DX009 (ip), vehicle: Klucel (hydroxypropylcellulose) (HPC) 102 % of control | dose: 25.0 mg/kg/injection, schedule: Q01DX009 (ip), vehicle: Klucel (hydroxypropylcellulose) (HPC) 100 % of control | dose: 50.0 mg/kg/injection, schedule: Q01DX009 (ip), vehicle: Klucel (hydroxypropylcellulose) (HPC) 106 % of control and 121 % of control | [2] 104 % of control and 92 % of control | [10] 104 % of control | [5] 105 % of control | dose: 200.0 mg/kg/injection, schedule: Q04DX002 (ip), vehicle: Klucel (hydroxypropylcellulose) (HPC) 110 % of control

CC(NCCOc1ccccc1)c1ccccc1 (stereo not given)
inactive: dose: 100.0 mg/kg/injection, schedule: Q04DX002 (ip), vehicle: saline with Tween-80 108 % of control | dose: 200.0 mg/kg/injection, schedule: Q04DX002 (ip), vehicle: saline with Tween-80 105 % of control

COc1c([N+](=O)[O-])cc(C)nc1Cl
inactive: [11] 95 % of control | [12] 101 % of control | [13] 101 % of control

CC(C)(C)OC(=O)C(=[N+]=[N-])C(=O)OC(C)(C)C
inactive: [1] 97 % of control | [2] 102 % of control | [3] 98 % of control | [4] 97 % of control | [5] 105 % of control | [6] 104 % of control | [7] 90 % of control | [8] 105 % of control | [9] 104 % of control

Cc1ccc(C(=O)c2ccccc2N)cc1C
inactive: dose: 100.0 mg/kg/injection, schedule: Q01DX001 (ip), vehicle: carboxymethylcellulose (CMC) 100 % of control | dose: 200.0 mg/kg/injection, schedule: Q01DX001 (ip), vehicle: carboxymethylcellulose (CMC) 116 % of control | dose: 400.0 mg/kg/injection, schedule: Q01DX001 (ip), vehicle: carboxymethylcellulose (CMC) 102 % of control

CCc1ccc(C)[n+](N)c1
inactive: [14] 103 % of control | [11] 109 % of control

O=C(O)C[As](=O)(O)O
inactive: dose: 30.0 mg/kg/injection, schedule: Q01DX009 (ip), vehicle: saline 90 % of control | dose: 60.0 mg/kg/injection, schedule: Q01DX009 (ip), vehicle: saline 97 % of control

C=CC(C)(C)c1ccccc1O
inactive: [15] 95 % of control | [16] 104 % of control

COc1ccc(CC[n+]2cccc(C(C)=O)c2)cc1OC
inactive: dose: 75.0 mg/kg/injection, schedule: Q01DX001 (ip), vehicle: saline 103 % of control | dose: 150.0 mg/kg/injection, schedule: Q01DX001 (ip), vehicle: saline 106 % of control | dose: 300.0 mg/kg/injection, schedule: Q01DX001 (ip), vehicle: saline 113 % of control

NC(=O)OCCCc1ccccc1
inactive: [17] 112 % of control | [18] 105 % of control | dose: 25.0 mg/kg/injection, schedule: Q04DX003 (ip), vehicle: Klucel (hydroxypropylcellulose) (HPC) 101 % of control | [19] 103 % of control | dose: 50.0 mg/kg/injection, schedule: Q04DX003 (ip), vehicle: Klucel (hydroxypropylcellulose) (HPC) 104 % of control | [20] 112 % of control | [21] 105 % of control | [6] 98 % of control

Cc1cccc(NC(=O)C2CCC(C)(C(=O)O)C2(C)C)c1 (stereo not given)
inactive: [22] 101 % of control | [23] 101 % of control | [24] 96 % of control

Cc1cc(C)c(C2CC3CCC2C3)cc1N (stereo not given)
inactive: dose: 25.0 mg/kg/injection, schedule: Q04DX002 (ip), vehicle: Klucel (hydroxypropylcellulose) (HPC) 100 % of control | dose: 50.0 mg/kg/injection, schedule: Q04DX002 (ip), vehicle: Klucel (hydroxypropylcellulose) (HPC) 100 % of control | [10] 100 % of control | [3] 90 % of control | dose: 200.0 mg/kg/injection, schedule: Q04DX002 (ip), vehicle: saline 96 % of control

C=C(CC(N)=O)C(=O)O (tested in a mixture with another compound)
inactive: dose: 6.25 mg/kg/injection, schedule: Q01DX009 (ip), vehicle: saline 97 % of control | [17] 100 % of control | dose: 20.0 mg/kg/injection, schedule: Q01DX009 (ip), vehicle: saline 105 % of control | [18] 105 % of control | dose: 35.0 mg/kg/injection, schedule: Q01DX009 (ip), vehicle: saline 94 % of control | [14] 107 % of control | [19] 106 % of control | dose: 65.0 mg/kg/injection, schedule: Q01DX009 (ip), vehicle: saline 102 % of control | [11] 118 % of control | [20] 111 % of control | dose: 125.0 mg/kg/injection, schedule: Q01DX009 (ip), vehicle: saline 119 % of control | dose: 177.0 mg/kg/injection, schedule: Q01DX001 (ip), vehicle: saline 110 % of control | [12] 107 % of control | [21] 111 % of control | dose: 266.0 mg/kg/injection, schedule: Q01DX001 (ip), vehicle: saline 124 % of control | dose: 270.0 mg/kg/injection, schedule: Q01DX001 (ip), vehicle: saline 110 % of control | dose: 270.0 mg/kg/injection, schedule: Q01DX009 (ip), vehicle: saline 120 % of control and 123 % of control | [13] 111 % of control | dose: 400.0 mg/kg/injection, schedule: Q01DX009 (ip), vehicle: saline 101 % of control and 111 % of control and 117 % of control | dose: 600.0 mg/kg/injection, schedule: Q01DX001 (ip), vehicle: saline 114 % of control | dose: 600.0 mg/kg/injection, schedule: Q01DX009 (ip), vehicle: saline 113 % of control | dose: 800.0 mg/kg/injection, schedule: Q01DX001 (ip), vehicle: saline 122 % of control | dose: 1000.0 mg/kg/injection, schedule: Q01DX001 (ip), vehicle: saline 113 % of control

Cc1ccc(Nc2nc(N)nc(N)c2N)cc1
inactive: dose: 6.0 mg/kg/injection, schedule: Q01DX Z (ip), vehicle: saline 95 % of control | dose: 12.0 mg/kg/injection, schedule: Q01DX Z (ip), vehicle: saline 97 % of control

CCCCCC(C)O[Si](C)c1cccc2ccccc12 (stereo not given)
inactive: [23] 98 % of control | [15] 92 % of control | [24] 93 % of control | [16] 92 % of control | dose: 400.0 mg/kg/injection, schedule: Q01DX009 (ip), vehicle: saline with Tween-80 104 % of control | dose: 400.0 mg/kg/injection, schedule: Q04DX003 (ip), vehicle: saline with Tween-80 101 % of control

OCC12NC(=S)OC1C(O)C(O)CO2 (stereo not given)
inactive: [22] 104 % of control | [23] 104 % of control | [24] 104 % of control

C/C(=C1\SC(=S)N(C2OC(CO)C(O)C(O)C2O)C1=O)c1ccco1 (stereo not given)
inactive: dose: 12.5 mg/kg/injection, schedule: Q01DX005 (ip), vehicle: water 109 % of control | dose: 25.0 mg/kg/injection, schedule: Q01DX005 (ip), vehicle: water 95 % of control | dose: 50.0 mg/kg/injection, schedule: Q01DX005 (ip), vehicle: water 111 % of control | dose: 100.0 mg/kg/injection, schedule: Q01DX005 (ip), vehicle: water 98 % of control | dose: 200.0 mg/kg/injection, schedule: Q01DX005 (ip), vehicle: water 93 % of control
